For 89 substances, Count results are on record in patent US20240207421A1, “NERVE TARGETING PEPTIDES AND METHODS OF USE” (ALUME BIOSCIENCES, INC., priority 2020, published 2024).

Human MPZ, sequence (P25189 30-153 limits assumed): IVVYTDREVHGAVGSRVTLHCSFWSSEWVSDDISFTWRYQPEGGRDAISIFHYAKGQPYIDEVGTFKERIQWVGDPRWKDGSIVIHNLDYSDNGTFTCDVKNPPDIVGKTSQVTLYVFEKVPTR

The first test deals with Human Myelin PLP. Nature of the test: Phage display library screening (Example 2, Python script analysis), binding to Human Myelin PLP. The note with it: combined unique sequence count, Python/R script analysis. As to the method:
(§1) Phage display library screens were used to identify peptides that bind to target proteins (including specific laminin trimers) that are expressed in human nerves, as described in Table 3. These screens were also carried out to identify peptides that could bind selectively to nerves versus muscle. Such peptides could therefore be useful for systemic in-vivo labeling of nerves during fluorescence assisted surgery. Specifically, m 13 phage libraries expressing 7 or 12 random amino acid peptides, or a cyclic peptide CX7C, on the N-terminus of the minor coat protein pIII (New England Biolabs; NEB) were processed through multiple rounds of selection for binding to target proteins expressed in nerves, or to excised human nerves, nerve extracts, or muscle, as described further below.
(§2) For screening against the specified target proteins in Table 1, including LN211, LN411, LN421, and LN521, the phage library was processed by up to 4 binding and wash cycles. For selection, phage libraries were incubated for up to 24 hours at 4° C. in 96 well plates that had been coated with one of the target proteins. Plates were then washed with PBS and phage were eluted using 0.2M glycine pH 2.0. Phage supernatants where then neutralized with Tris pH 9.0 prior to plating on TGI bacteria and LB agar plates. Colonies were counted to determine titer followed by DNA preparation of pools of phage and NextGen sequencing. After rounds of selection, phage were pooled and amplified for iterative selection. Phage that were bound at each round were sequenced. NextGen sequencing of pools after 2, 3 and 4 rounds of selection was used to isolate candidate sequences that were analyzed further to identify those that specifically bound each unique target protein.
(§3) Python Script Analysis: For all NEB sequence datasets, a python script was used to translate, trim, and filter the peptide sequences. The script translated the nucleotide sequences, translating amber codons as glutamine in peptide sequences, and then trimmed the end sequences that come from the vector. Secondly, the script combined the unique counts of trimmed peptides with identical sequences. […] Another python script was used to group peptides from different assays according to protein target (Myelin Protein Zero, Myelin Proteolipid Protein, Myelin Basic Protein, and Nidogen-2) and also combine the unique sequence counts for each peptide. An R script was written to merge the peptide sequences from different data files and determine peptides specific for each protein target but absent from different protein binding datasets. Peptide sequences were ranked by unique sequence count.
With KGVIPAT (Myelin PLP-binding peptide), the Count is 27. VTPNKAR (Myelin PLP-binding peptide): the Count came to 26.

WNTADRL (Myelin PLP-binding peptide): the Count worked out at 34.

With LPHRLNP (Myelin PLP-binding peptide), the Count is recorded as 27.

In another test the test system is Laminin 421/521. Nature of the test: Phage display library screening (Example 2), NEB laminin-binding peptides. More on the design: species or system human. The note with it: Laminin 421/521, not 211 and 411; combined unique sequence count, Python/R script analysis. A digest of the protocol:
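M13 phage libraries (7- or 12-mer random or cyclic CX7C peptides on pIII) panned up to 4 rounds against plate-coated laminins LN211, LN411, LN421, LN521, 24 h at 4 °C; elution with 0.2M glycine pH 2.0. NextGen sequencing of pools after rounds 2–4; peptides binding 421/521 but not 211/411 identified.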
Take “EGHVWSEYTWGT (Human MPZ-binding peptide)”: the Count is reported as 50.

In another test the test system is Human MPZ. Briefly: Phage display library screening (Example 2, Python script analysis), binding to Human MPZ. The note with it: combined unique sequence count, Python/R script analysis. The procedure:
as §1, §2, §3
As to WPRPIQI (Human MPZ-binding peptide), the Count came to 41. For the substance LISPTAR (Human MPZ-binding peptide), the Count was found to be 37. As to YAPWRVF (Human MPZ-binding peptide), the Count is on record as 37. On to NTASMTT (Human MPZ-binding peptide), for which the Count is 38.

Turning to NPTSEGA (Human MPZ-binding peptide), the Count is listed as 37. On the same count and under the same terms, the value for FSTTGRG (Human MPZ-binding peptide) was 39.

LPNANNL (Human MPZ-binding peptide): the Count is given as 41. Still for that read-out and setting: the figure for LPAESHW (Human MPZ-binding peptide) is 45; for HNQLLYT (Human MPZ-binding peptide) it is 38.

For VHTPYRS (Human MPZ-binding peptide), the Count amounted to 41. For GGSKVWG (Human MPZ-binding peptide), the Count turned out to be 40.

“TTNVTEIERESY (Human MPZ-binding peptide)”: the Count was 37.

For SPNTNSH (Human MPZ-binding peptide), the Count came out at 40. The same measure, in the same setting: the value for CIKGEDNQC (Human MPZ-binding peptide) was 38; that for HLDSRRH (Human MPZ-binding peptide) was 46. IEQVGWR (Human MPZ-binding peptide): the Count was found to be 38. Take CLKQQTGDC (Human MPZ-binding peptide): the Count is on record as 37. Consider WMTNLDP (Human MPZ-binding peptide), for which the Count is on record as 43. As to VVPLKWI (Human MPZ-binding peptide), the Count was found to be 40. On to LVLSNPR (Human MPZ-binding peptide), for which the Count turned out to be 46.

On to AWTMRAS (Human MPZ-binding peptide), for which the Count is recorded as 39. For HPFPRFD (Human MPZ-binding peptide), the Count was found to be 45. For the substance TLLHYSA (Human MPZ-binding peptide), the Count came out at 40. Take KLPTLSV (Human MPZ-binding peptide): the Count was determined as 44. On the same count and under the same terms, the value for NPISPRN (Human MPZ-binding peptide) was 38; that for CYSSVADMC (Human MPZ-binding peptide) was 43; that for “NGAYSLAIRYTS (Human MPZ-binding peptide)” was 53. Same read-out and setting: the figure for THSTDLS (Human MPZ-binding peptide) is 37; for GLWRHTM (Human MPZ-binding peptide) it is 40. With CEDRQRSMC (Human MPZ-binding peptide), the Count was 40. Consider TTLVVTA (Human MPZ-binding peptide), for which the Count came out at 42.

For ALPISYL (Human MPZ-binding peptide), the Count was 42. On the same count and under the same terms, the figure for NASVPPK (Human MPZ-binding peptide) is 42. As for SVAYVPV (Human MPZ-binding peptide), the Count worked out at 46. As for YEGERGA (Human MPZ-binding peptide), the Count is on record as 39. For NMSHSNR (Human MPZ-binding peptide), the Count turned out to be 46. With LWAKRDA (Human MPZ-binding peptide), the Count is 38. Turning to LVNPFPE (Human MPZ-binding peptide), the Count is 39. On to STHEWRT (Human MPZ-binding peptide), for which the Count came out at 45. For the substance SNALSYF (Human MPZ-binding peptide), the Count worked out at 41. With “ADNVLRRALENI (Human MPZ-binding peptide)”, the Count turned out to be 49. Consider CERIGPREC (Human MPZ-binding peptide), for which the Count was found to be 39. With AMSNLSY (Human MPZ-binding peptide), the Count was determined as 45. With “YTPNWHFRWMPA (Human MPZ-binding peptide)”, the Count came to 60. Take KTPILAS (Human MPZ-binding peptide): the Count is 38. Still for that read-out and setting: the figure for CSNALNKAC (Human MPZ-binding peptide) is 39; for FPSYTIS (Human MPZ-binding peptide) it is 40; for “GEWRARIDQDVS (Human MPZ-binding peptide)” it is 65. Take HHPLFID (Human MPZ-binding peptide): the Count came out at 39. For the substance “GMVSPHHSVYRH (Human MPZ-binding peptide)”, the Count is on record as 51. In the case of VPLAYLR (Human MPZ-binding peptide), the Count was found to be 40. As for SETESYM (Human MPZ-binding peptide), the Count came out at 41. Take YMKHSPG (Human MPZ-binding peptide): the Count worked out at 45.

For YSSLTSN (Human MPZ-binding peptide), the Count amounted to 38. For TTWPNTA (Human MPZ-binding peptide), the Count was found to be 45. Regarding FRVTQTA (Human MPZ-binding peptide), the Count is recorded as 41. For FALPAGL (Human MPZ-binding peptide), the Count turned out to be 41. In the case of FSPRDVS (Human MPZ-binding peptide), the Count is 39. Regarding KQPAMEN, the Count is 37. As for HPLMVPS (Human MPZ-binding peptide), the Count is reported as 41. In the case of SYLPPFI (Human MPZ-binding peptide), the Count is on record as 41.

On to QIAHLEY (Human MPZ-binding peptide), for which the Count stood at 50.

GSWSSGF (Human MPZ-binding peptide): the Count came out at 52.

As for WTSVATA (Human MPZ-binding peptide), the Count stood at 41.

As for KRNLWDI (Human MPZ-binding peptide), the Count is 40. Take YGQSITE (Human MPZ-binding peptide): the Count is 37. In the case of CRVGVTSAC (Human MPZ-binding peptide), the Count was 41. Regarding MIHTRQT (Human MPZ-binding peptide), the Count is reported as 41. On the same count and under the same terms, the value for DRYLLNQ (Human MPZ-binding peptide) was 40; that for YPQARTS (Human MPZ-binding peptide) was 46; that for SGHGAFR (Human MPZ-binding peptide) was 42. The same measure, in the same setting: the value for “EGHVWSEYTWGT (Human MPZ-binding peptide)” was 37. For FMSDVDH (Human MPZ-binding peptide), the Count is given as 37. For GPVVSGM (Human MPZ-binding peptide), the Count turned out to be 46.

Turning to CPDAARNSC (Human MPZ-binding peptide), the Count was 43.

On to CQKWFTFAC (Human MPZ-binding peptide), for which the Count was determined as 39.

Consider FEHMAVT (Human MPZ-binding peptide), for which the Count is given as 42. Still for that read-out and setting: the figure for CGEKIMSLC (Human MPZ-binding peptide) is 40; for MYHDSVS (Human MPZ-binding peptide) it is 47.

For CDIKDANSC (Human MPZ-binding peptide), the Count stood at 38. Regarding LVLQTTP (Human MPZ-binding peptide), the Count was 37. Still for that read-out and setting: the figure for SAHSVVE (Human MPZ-binding peptide) is 38; for ISSVTVV (Human MPZ-binding peptide) it is 37. Same read-out and setting: the figure for “AYLEDWRSMSTR (Human MPZ-binding peptide)” is 46; for LSPPRIM (Human MPZ-binding peptide) it is 43.
